Source: patent EP0607274B1, “3-(N-ISOPROPYL-N-n-PROPYLAMINO)-5-(N-ISOPROPYL)CARBAMOYLCHROMAN” (priority 1991, dated 1993)
pKi: −log10 of the molar value.

Columns and labels:
[1] = Oral bioavailability in dogs (plasma AUC method, i.v. versus p.o.); format: in vivo; details: dog, 10 umol/kg, plasma level measurements, 1 µmol·kg^-1 i.v. and 10 µmol·kg^-1 p.o.
Description: Dose-effect studies in rat following subcutaneous versus oral administration further support a high availability of the compound at the receptor after oral administration.
Method: Assessment for oral bioavailability (systemic availability) was based on the plasma area under the curve (AUC) method. An aqueous saline solution of compound of the invention was administered intravenously (i.v.) and orally (p.o.) to the animals and concentrations of the compound in plasma measured at numerous timepoints. The doses administered were 1 µmol·kg^-1 and 10 µmol·kg^-1 for intravenous and oral administration, respectively. AUC was calculated according to the trapezoidal rule. Determination of the test compound in plasma was accomplished by an HPLC method which incorporated electrochemical detection.

5-HT1A receptors = target: T1, 5-HT1A receptors (Rattus norvegicus, UniProt P19327); test: 5HT1A binding assay (3H-8-OH-DPAT, rat cerebral cortex + hippocampus homogenate); details: rat brain, 37°C, 10 minutes
T1 construct: Cerebral cortex + hippocampus from each rat was dissected and homogenized; from tissue; host or cells: rat cerebral cortex + hippocampus homogenate
T1 sequence (P19327 1-422): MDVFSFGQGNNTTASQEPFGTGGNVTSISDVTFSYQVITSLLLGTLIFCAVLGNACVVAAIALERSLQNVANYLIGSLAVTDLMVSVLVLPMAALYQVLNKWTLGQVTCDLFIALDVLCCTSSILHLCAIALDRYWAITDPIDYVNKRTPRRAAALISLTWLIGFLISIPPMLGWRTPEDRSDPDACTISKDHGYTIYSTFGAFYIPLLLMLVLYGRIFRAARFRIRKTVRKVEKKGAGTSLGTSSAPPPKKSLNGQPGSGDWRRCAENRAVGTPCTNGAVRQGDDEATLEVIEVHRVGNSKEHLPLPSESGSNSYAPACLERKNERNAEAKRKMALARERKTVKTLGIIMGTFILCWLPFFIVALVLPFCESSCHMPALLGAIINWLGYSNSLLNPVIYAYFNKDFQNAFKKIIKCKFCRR
Description: In order to evaluate the 5-HT-receptor stimulating effect and selectivity, the affinity for various receptors in rat brain were measured in vitro using receptor assay. The stereospecific (R)-enantiomeric compound of the invention (R)-3-(N-isopropyl-N-n-propylamino)-5-(N-isopropyl)carbamoylchroman has Ki 8.6 (nM) and the racemic compound 3-(N-isopropyl-N-n-propylamino)-5-(N-isopropyl)-carbamoylchroman has Ki 24 (nM). The Ki value for the (S)-enantiomer exceeded 1000 nM.
Method: 5HT1A binding assay. Cerebral cortex + hippocampus from each rat was dissected and homogenized in 15 ml ice-cold 50 mM Tris-HCl buffer 4.0 mM CaCl2 and 5.7 mM ascorbic acid, pH 7.5 with an Ultra-Turrax (Janke & Kunkel, Staufen, FRG) for ten s. After centrifugation for 12.5 min at 17,000 rpm (39,800 x g in a Beckman centrifuge with a chilled JA-17 rotor (Beckman, Palo Alto, CA, USA), the pellets were resuspended in the same buffer and homogenization and centrifugation repeated. To each pellet 5 ml ice-cold 0.32 M sucrose were added and homogenized for 5 sec. These samples were kept frozen at -70°C. When used they were diluted with the buffer to 8 mg tissue/ml and homogenized for 10 sec. The tissue homogenates were incubated for ten minutes at 37°C and then supplied with 10 µM pargyline followed by reincubation for 10 minutes.
The binding assay followed that described by Peroutka, J. Neurochem. 47, 529-540, (1986). The incubation mixture (2 ml) contained ^3H-8-OH-DPAT (0.25 to 8 nM), 5 mg/ml tissue homogenate in 50 mM Tris-HCl buffer containing 4.0 mM CaCl2 and 5.7 mM ascorbic acid, pH 7.5. Six different concentrations of ^3H-8-OH-DPAT were analyzed. Binding experiments were started by the addition of tissue homogenate and followed by incubation at 37°C for 10 minutes. […] The filters were washed twice with 5 ml ice-cold 50mM Tris-HCl buffer, pH 7.5, and counted with 5 ml Ready-solv HP (Beckman) in a Beckman LS 3801 scintillation counter. Non-specific binding was measured by the addition of 10 µM 5-HT to the reaction mixture. […]

synthesis rate of 5-HT = test: Synthesis of 5-HT: accumulation of 5-HTP in rat brain after NSD 1015; format: in vivo; details: compound given 30 min before NSD 1015
Description: Method: The rate of synthesis of 5-HT in the rat streatum was measured as the accumulation of 5-HTP during 30 min after inhibition of aromatic L-amino acid decarboxylase by NSD 1015 (decarboxylase inhibitor, 100 mg/kg i.p.). The test compound was administered 30 min before the NSD 1015. The regions of the brain to be examined were dissected, frozen and stored.
The levels of 5-HTP (5-hydroxytryptophan) was determined by use of high performance liquid chromatography (HPLC) with electrochemical detection according to the method of Magnusson, Nilsson and Westerlund (1980). The mobile phase was 0.1 M phosphate buffer (pH 2.5):methanol:acetonitrile-89:9:2 v/v, containing 1mM octylsulphate. The frozen samples were weighed and homogenized in 0,1 M perchloric acid, containing […] sodium bisulphite, 1 mM ethylene diamine tetraacetic acid (EDTA) and epinine as an internal standard. The supernatants were injected directly onto a Supelcosil C18 (3 µM) column, connected to a detector (ESA Coulochem 5100A), set to 0.05/0.40 V.

[2] = Temperature effects: body temperature in rats; format: in vivo
Description: Method: In each test, thirty rats, weighing approx 250 g, housed in 6 cages of 5 rats, are used. The rats have free access to food and water. Before the start of testing, they are numbered and left undisturbed for at last 1 hour. Before the administration of the compound, the body temperature of each rat is measured using a YSI 2100 tele-thermometer. The thermometer probe is inserted 10 cm into the rectum and left in pace for thirty seconds. The drug is then administered either subcutaneously or orally. In each experiment vehicle and 4 doses of drug are tested. One rat in each cage receives each treatment. The order of treatment is rotated since disturbance to the cage increases the activity of the rats, and thereby their body temperature. Thirty minutes after drug administration the rats' body temperature are measured again. The procedure is repeated 60, 90 and 120 minutes after drug administration. The resultant data on body temperature is subjected to analysis of variance. A significant group by time interaction is taken as an indication of drug effect. To obtain the minimum effective dose, the mean temperature for each of the drug treated groups are compared with that of the vehicle group at each time point using Dunnett's t-test with a level of significance of p<0.02. […]

Row | SMILES | bioavailability [1] [%] | pKi (5-HT1A receptors) | synthesis rate of 5-HT, measured as 5-HTP level in rat brain (synthesis rate of 5-HT; 0.2 mg/kg oral administration) | synthesis rate of 5-HT, measured as 5-HTP level in rat brain (synthesis rate of 5-HT; 0.1trig/kg subcutaneous administration) | body temperature ([2]; 1 mg/kg oral administration) | body temperature ([2]; subcutaneous administration of 0.3 mg/kg)
1 | CCCN(C(C)C)C1COc2cccc(C(=O)NC(C)C)c2C1 (racemic) [racemate, 3-(N-Isopropyl-N-n-propylamino)-5-(N-isopropyl)carbamoyl chroman] | 21 | 7.62 | – | – | – | –
2 | CCCN(C(C)C)[C@H]1COc2cccc(C(=O)NC(C)C)c2C1 [(R)-enantiomer, (R)-3-(N-Isopropyl-N-n-propylamino)-5-(N-isopropyl)carbamoylchroman] | 17 | 8.07 | significant decrease | significant decrease | significant temperature decrease | significant temperature decrease
3 | CCCN(C(C)C)[C@@H]1COc2cccc(C(=O)NC(C)C)c2C1 [(S)-enantiomer, (S)-enantiomer of 3-(N-isopropyl-N-n-propylamino)-5-(N-isopropyl)carbamoylchroman] | – | < 6.00 | – | – | – | –
